Among the test systems are CCRF-CEM leukemia; EKVX NSCLC; HCC-2998 colon; MDA-MB-435; NCI-H460 lung; SF-268 CNS; SK-MEL-2 melanoma; SK-OV-3 ovarian; SNB-19 CNS; SR leukemia; UO-31 renal.
Common to all, as to experiment: NCI-60 cell line screen, 48 h

The values below come from PubChem BioAssay (NCI).

The structures appear in SMILES notation. Several values for one entry are separate records, joined by “and”; a condition that tells them apart may be missing. Equal values may be shown once.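 Five concentrations, 48 hours, 96-well plates. GI50 = concentration required for 50% inhibition of growth. TGI: concentration producing complete growth inhibition.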 Where only a bound is given, the exact number is not on record here.

`CC1=NN=C(C)C1N=Nc1ccc2nc(C)[nH]c2c1`: the TGI in the test with CCRF-CEM leukemia was over 100 µM; in the test with EKVX NSCLC, over 71.3 µM; in the test with HCC-2998 colon, over 100 µM; with MDA-MB-435, over 100 µM; with NCI-H460 lung, over 100 µM; in the test with SF-268 CNS it was over 83.1 µM. The TGI is 36.3 µM in the test with SK-MEL-2 melanoma; 24.2 µM with SK-OV-3 ovarian; over 100 µM with SNB-19 CNS; 48.3 µM in the test with SR leukemia; 77.5 µM in the test on UO-31 renal.

Take `CCOC(=O)C(NC(=O)OCc1ccccc1)C(=O)O` (stereo not given): the TGI in the test with CCRF-CEM leukemia, in the test with EKVX NSCLC, with HCC-2998 colon, with MDA-MB-435, with NCI-H460 lung and in the test with SF-268 CNS was over 100 µM throughout. Moreover, the TGI in the test on SK-MEL-2 melanoma, in the test on SNB-19 CNS, with SR leukemia and with UO-31 renal was over 100 µM throughout.

Regarding `O=C1CN(c2ccccc2)Cc2nc(Cl)ccc2N1`, the TGI in the test on CCRF-CEM leukemia, in the test on EKVX NSCLC, with HCC-2998 colon, in the test on MDA-MB-435, in the test on NCI-H460 lung and in the test on SF-268 CNS was over 100 µM in each case. Also, the TGI with SK-MEL-2 melanoma, with SK-OV-3 ovarian, in the test with SNB-19 CNS, with SR leukemia and in the test on UO-31 renal was over 100 µM each time.

Consider `O=C(O)c1nc2ccccc2nc1Nc1ccc(Cl)c(Cl)c1`, for which the TGI with CCRF-CEM leukemia was over 100 µM; in the test with EKVX NSCLC, over 100 µM; with HCC-2998 colon, 73.5 µM; in the test with MDA-MB-435 it was over 100 µM; with NCI-H460 lung it was 82.5 µM; in the test on SF-268 CNS, over 100 µM. For the same compound, the TGI is 88.1 µM with SK-OV-3 ovarian, over 100 µM in the test on SNB-19 CNS, over 100 µM in the test on SR leukemia and 33.6 µM in the test on UO-31 renal.

Turning to `Brc1ccc(C2C3CSc4ccccc4C3=NN2c2ccccc2)cc1` (stereo not given), the TGI in the test on CCRF-CEM leukemia, in the test with MDA-MB-435, in the test on NCI-H460 lung, with SF-268 CNS, in the test with SK-MEL-2 melanoma and in the test on SK-OV-3 ovarian was over 100 µM each time. The TGI in the test with SNB-19 CNS, in the test with SR leukemia and in the test with UO-31 renal was over 100 µM in each case.

In the case of `CSc1ncnc2c1cnn2Cc1cnnn1COCC(O)CO` (stereo not given), the TGI was over 100 µM in the test on CCRF-CEM leukemia; over 100 µM with EKVX NSCLC; over 100 µM in the test on HCC-2998 colon; over 100 µM with MDA-MB-435; 46.5 µM in the test on SF-268 CNS; over 100 µM with SK-MEL-2 melanoma. Moreover, the TGI in the test with SK-OV-3 ovarian, with SNB-19 CNS, in the test on SR leukemia and in the test on UO-31 renal was over 100 µM throughout.

As for `CC1=CC(=O)CC2(C)CCC(C(C)CC(=O)CC(C)C)CC12OO` (stereo not given), the TGI was 59.8 µM and 46.6 µM in the test with CCRF-CEM leukemia; 36.8 µM and 34.3 µM with EKVX NSCLC; 31.3 µM and 34.2 µM in the test with MDA-MB-435; 25.1 µM and > 100 µM in the test on NCI-H460 lung; 44.1 µM and 32.6 µM in the test with SF-268 CNS; 37.9 µM and 31.9 µM with SK-MEL-2 melanoma. Also, the TGI in the test with SNB-19 CNS was over 100 µM; in the test on SR leukemia, 41.5 µM and 41.4 µM; in the test with UO-31 renal, 29.8 µM and 34.7 µM. Further, the GI50 in the test on NCI-H460 lung was 11.6 µM and 31 µM.

For the compound `O=C1NC2NC3NC(=O)NC3NC2N1` (stereo not given), the TGI with CCRF-CEM leukemia, in the test on EKVX NSCLC, in the test on MDA-MB-435, with SK-MEL-2 melanoma, with SNB-19 CNS and in the test with SR leukemia was over 100 µM each time. For the same compound, in the test on UO-31 renal, the TGI is over 100 µM.

As to `Cc1ccc(S(=O)c2cccs2)cc1` (stereo not given), the TGI in the test on CCRF-CEM leukemia, in the test with EKVX NSCLC, with MDA-MB-435, in the test with NCI-H460 lung, in the test with SF-268 CNS and in the test with SNB-19 CNS was over 100 µM throughout. Besides, the TGI in the test on SR leukemia and with UO-31 renal was over 100 µM in each case.

Regarding `O=C(NCCN1CCCCC1)c1ccc(Br)cc1`, the TGI in the test on EKVX NSCLC, with HCC-2998 colon, in the test with MDA-MB-435, in the test with NCI-H460 lung, in the test with SF-268 CNS and in the test on SK-MEL-2 melanoma was over 100 µM each time. Also, the TGI with SK-OV-3 ovarian, with SNB-19 CNS, with SR leukemia and in the test with UO-31 renal was over 100 µM each time.

Regarding `CC(C)(C)OC(=O)NC1CCCC1C(=O)C1=CCCC1` (stereo not given), the TGI in the test on CCRF-CEM leukemia, with HCC-2998 colon, in the test with MDA-MB-435, in the test with NCI-H460 lung, with SF-268 CNS and with SK-MEL-2 melanoma was over 100 µM in each case. Moreover, the TGI in the test with SK-OV-3 ovarian, in the test with SNB-19 CNS and in the test with SR leukemia was over 100 µM in each case.

For the compound `CS(=O)(=O)N1CC(CCl)c2ccc(NO)cc21` (stereo not given), the TGI with CCRF-CEM leukemia came to 5.1 µM; with EKVX NSCLC it was 32.5 µM; with HCC-2998 colon, 28.5 µM; in the test with MDA-MB-435 it was 35.4 µM; in the test with NCI-H460 lung, 34.4 µM; in the test on SF-268 CNS it was 22.5 µM. Besides, the TGI was 41.3 µM in the test on SK-MEL-2 melanoma, over 31.6 µM in the test with SK-OV-3 ovarian, over 86.4 µM in the test with SNB-19 CNS and 16.5 µM with UO-31 renal.

As for `FC(F)(F)c1ccc(C2ON=C(c3ccccc3)N2C23CC4CC(CC(C4)C2)C3)cc1` (stereo not given), the TGI in the test with CCRF-CEM leukemia, in the test on EKVX NSCLC, with HCC-2998 colon, in the test with MDA-MB-435, in the test on NCI-H460 lung and in the test on SF-268 CNS was over 10 µM each time. The TGI in the test on SK-MEL-2 melanoma, with SK-OV-3 ovarian, in the test with SNB-19 CNS and in the test with SR leukemia was over 10 µM throughout.

`O=c1[nH]/c(=C/c2ccc3c(c2)OCO3)c(=O)[nH]/c1=C/c1ccc2c(c1)OCO2`: the TGI in the test with CCRF-CEM leukemia, with EKVX NSCLC, in the test with HCC-2998 colon, with MDA-MB-435, in the test on NCI-H460 lung and in the test on SF-268 CNS was over 10 µM each time. The TGI in the test with SK-MEL-2 melanoma, in the test on SK-OV-3 ovarian, in the test on SNB-19 CNS and in the test with UO-31 renal was over 10 µM in each case.
